# Reference: patent US11034648B2, “Cystobactamide derivatives” (priority 2017, dated 2021)
# Experiments:
# [1] = tested on: E. coli WT-3 [gyrA(S83L,D87G)]; test: microbe, parasite or virus in culture; format: cell-based; settings: for MIC: Escherichia coli, read-out: MIC E. coli WT-3 [gyrA(S83L,D87G)]
# Method in brief: (§1)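 First, overnight cultures were diluted into cation-adjusted Müller-Hinton broth at 10^4-10^6 cfu/mL. Next, they were exposed to serial compound dilutions for approx. 16 h at 30-37° C. Finally, wells were inspected visually and the MIC assigned where growth was absent.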
# E. coli WT = test: MIC, microbroth dilution susceptibility assay; format: cell-based; settings: for MIC: Escherichia coli
# Method in brief: as §1
# P. mirabilis = test: MIC, microbroth dilution susceptibility assay (Table 2b); format: cell-based; settings: larger panel
# Description: (§2) Cystobactamid derivatives synthesized were tested against relevant Gram negative and positive bacteria of clinical interest. Experimental procedures used for the biological characterization of the compounds are the same as previously described in WO 2016/082934.
# (§3) Bacterial strains used in susceptibility assays (minimum inhibitory concentration, MIC) were either part of our internal strain collection or purchased from the German Collection of Microorganisms and Cell Cultures (Deutsche Sammlung von Mikroorganismen und Zellkulturen, DSMZ) and the American Type Culture Collection (ATCC). The susceptible E. coli strain (WT) and fluoroquinolone-resistant mutants E. coli WT-3 and WT-III were kindly provided by Prof Dr. P. Heisig, Pharmaceutical Biology and Microbiology, University of Hamburg, Germany. The efflux-deficient strain P. aeruginosa ΔmexAB was kindly provided by Prof Dr. S. Häußler, Institute for Molecular Bacteriology, TWINCORE, Hannover, Germany. All compounds were prepared as DMSO stocks and MIC values were determined in standard microbroth dilution assays in 96-well MTPs as described in Baumann et al., Angew Chem Int Ed Engl. 2014; 53(52):14605-9. In brief, overnight cultures of bacteria were diluted in either tryptic soy broth (TSB: 1.7% peptone casein, 0.3% peptone soymeal, 0.25% glucose, 0.5% NaCl, 0.25% K2HPO4; pH 7.3; S. pneumoniae and E. faecalis) or cation-adjusted Müller-Hinton Broth (BBL™, BD; all other bacteria) and adjusted to 10^4-10^6 cfu/mL. Bacteria were grown in the presence of the derivatives in serial dilution for approx. 16 h at 30-37° C. MIC values were determined and were defined as the antibiotic concentration at which no visual growth of bacteria was observed.
# K. pneumoniae = test: as above; format: cell-based; settings: larger panel
# Description: as §2, §3
# P. aeruginosa ESBL 2 = test: as above; format: cell-based
# Description: as §2, §3
# A. baumannii = test: as above; format: cell-based; settings: larger panel
# Description: as §2, §3
# S. marcescens = test: as above; format: cell-based; settings: larger panel
# Description: as §2, §3
# E. aerogenes = test: as above; format: cell-based; settings: larger panel
# Description: as §2, §3
# S. epidermidis = test: as above; format: cell-based; settings: larger panel
# Description: as §2, §3
# P. aeruginosa ESBL 1 = test: as above; format: cell-based
# Description: as §2, §3
# E. faecalis = test: as above; format: cell-based; settings: larger panel
# Description: as §2, §3
# C. freundii = test: as above; format: cell-based; settings: larger panel
# Description: as §2, §3
# E. cloacae = test: as above; format: cell-based; settings: larger panel
# Description: as §2, §3
# P. vulgaris = test: as above; format: cell-based; settings: larger panel
# Description: as §2, §3
# P. aeruginosa ΔmexAB = test: microbe, parasite or virus in culture; format: cell-based; settings: Pseudomonas aeruginosa, 16 h, read-out: MIC P. aeruginosa ΔmexAB, efflux-deficient strain; small panel, Tables 1a/1b
# Method in brief: as §1
# E. coli ΔtolC = test: microbe, parasite or virus in culture; format: cell-based; settings: Escherichia coli, 16 h, read-out: MIC E. coli ΔtolC, small panel, Tables 1a/1b; no visual growth after approx. 16 h
# Method in brief: as §1
# E. coli gyrase = target: T1, E. coli gyrase (Escherichia coli, UniProt P0AES4+P0AES6); test: E. coli gyrase supercoiling (sc) assay; format: biochemical; settings: supercoiling assay kit, agarose gel quantification; read-out: Ec gyrase sc IC50
# T1 construct: purchased Inspiralis
# Description: The target activity on E. coli gyrase was assessed as described in Baumann et al., Angew Chem Int Ed Engl. 2014; 53(52):14605-9 using a commercial supercoiling (sc) assay kit from Inspiralis according to the manufacturer's instructions. The samples were separated on 0.8% (w/v) agarose gels and relaxed and supercoiled plasmid was visualized by ethidium bromide staining. Half-inhibitory concentrations (IC50) were calculated after image analysis and quantification (ImageJ) based on sigmoidal curve fitting (OriginPro).
# C. freundii DSM-30039 = test: MIC, microbroth dilution susceptibility assay; format: cell-based; settings: Citrobacter freundii, DSM30039; large panel, Table 2a
# Method in brief: as §1
# A. baumannii DSM-30008 = test: MIC, microbroth dilution susceptibility assay; format: cell-based; settings: Acinetobacter baumannii, DSM30008; large panel, Table 2a
# Method in brief: as §1
# E. cloacae DSM-30054 = test: MIC, microbroth dilution susceptibility assay; format: cell-based; settings: Enterobacter cloacae, DSM30054; large panel, Table 2a
# Method in brief: as §1
# P. aeruginosa DSM-46316 = test: MIC, microbroth dilution susceptibility assay; format: cell-based; settings: Pseudomonas aeruginosa, DSM46316; large panel, Table 2a
# Method in brief: as §1
# S. aureus Newman = test: MIC, microbroth dilution susceptibility assay; format: cell-based; settings: Staphylococcus aureus, NEWMAN; small panel, Tables 1a/1b; read-out: MIC S. aureus Newman
# Method in brief: as §1
# S. epidermidis DSM-28765 = test: MIC, microbroth dilution susceptibility assay; format: cell-based; settings: Staphylococcus epidermidis, DSM28765; large panel, Table 2a
# Method in brief: as §1
# E. coli WT DSM-1116 = test: MIC, microbroth dilution susceptibility assay; format: cell-based; settings: Escherichia coli, DSM1116; small panel, Tables 1a/1b; no visual growth after approx. 16 h; read-out: MIC E. coli WT DSM-1116
# Method in brief: as §1
# P. aeruginosa WT PA14 = test: MIC, microbroth dilution susceptibility assay; format: cell-based; settings: Pseudomonas aeruginosa, PA14, small panel, Tables 1a/1b; read-out: MIC P. aeruginosa WT PA14
# Method in brief: as §1
# P. aeruginosa DSM-24600 = test: MIC, microbroth dilution susceptibility assay; format: cell-based; settings: Pseudomonas aeruginosa, DSM24600; large panel, Table 2a
# Method in brief: as §1
# P. vulgaris DSM-2140 = test: MIC, microbroth dilution susceptibility assay; format: cell-based; settings: Proteus vulgaris, DSM2140; large panel, Table 2a
# Method in brief: as §1
# S. aureus ATCC-29213 = test: MIC, microbroth dilution susceptibility assay; format: cell-based; settings: Staphylococcus aureus, ATCC29213; large panel, Table 2a
# Method in brief: as §1
# S. marcescens DSM-30121 = test: MIC, microbroth dilution susceptibility assay; format: cell-based; settings: Serratia marcescens, DSM30121; large panel, Table 2a
# Method in brief: as §1
# S. pneumoniae DSM-20566 = test: MIC, microbroth dilution susceptibility assay; format: cell-based; settings: Streptococcus pneumoniae, DSM20566; large panel, Table 2a; TSB
# Method in brief: as §1
# E. faecalis ATCC-29212 = test: MIC, microbroth dilution susceptibility assay; format: cell-based; settings: Enterococcus faecalis, ATCC29212; large panel, Table 2a; TSB
# Method in brief: as §1
# K. pneumoniae DSM-30104 = test: MIC, microbroth dilution susceptibility assay; format: cell-based; settings: Klebsiella pneumoniae, DSM30104; large panel, Table 2a
# Method in brief: as §1
# E. aerogenes DSM-30053 = test: MIC, microbroth dilution susceptibility assay; format: cell-based; settings: Klebsiella aerogenes, DSM30053; large panel, Table 2a
# Method in brief: as §1
# P. mirabilis DSM-2140 = test: MIC, microbroth dilution susceptibility assay; format: cell-based; settings: Proteus mirabilis, DSM2140; large panel, Table 2a
# Method in brief: as §1
# [2] = tested on: E. coli WT-III [marRΔ74bp]; format: cell-based; settings: fluoroquinolone-resistant mutant; Table 2a
# Description: as §2, §3
SMILES,MIC (P. aeruginosa ΔmexAB),MIC (E. coli ΔtolC),MIC [1],IC50 (E. coli gyrase),MIC (C. freundii DSM-30039),MIC (A. baumannii DSM-30008),MIC (E. cloacae DSM-30054),MIC (P. aeruginosa DSM-46316),MIC (S. aureus Newman),MIC (S. epidermidis DSM-28765),MIC (E. coli WT DSM-1116),MIC (P. aeruginosa WT PA14),MIC (P. aeruginosa DSM-24600),MIC (P. vulgaris DSM-2140),MIC (S. aureus ATCC-29213),"MIC (E. coli WT; large panel, Table 2a)",MIC (S. marcescens DSM-30121),MIC (S. pneumoniae DSM-20566),MIC (E. faecalis ATCC-29212),MIC (K. pneumoniae DSM-30104),further results
"COc1c(NC(=O)c2ccc(NC(=O)c3ccc(NC(=O)[C@H](CC#N)NC(=O)c4ccc(NC(=O)/C(C)=C/c5ccc(O)cc5)cc4)cc3)c(OC)c2O)ccc(C(=O)O)c1O [Alb, Albicidin, reference compound]",–,–,–,–,–,–,–,–,–,–,–,–,–,–,–,–,–,–,–,–,"MIC E. coli WT-3 [gyrA(S83L, D87G)] ([1]; larger panel, Table 2b): 0.06 µg/mL; MIC E. coli WT (E. coli WT; larger panel, Table 2b): 0.06 µg/mL; MIC P. mirabilis (P. mirabilis): >64 µg/mL; MIC K. pneumoniae (K. pneumoniae): >64 µg/mL; MIC P. aeruginosa ESBL 2 (P. aeruginosa ESBL 2; larger panel): 16 µg/mL; MIC A. baumannii (A. baumannii): >64 µg/mL; MIC S. marcescens (S. marcescens): >64 µg/mL; MIC E. aerogenes (E. aerogenes): >64 µg/mL; MIC S. epidermidis (S. epidermidis): 0.5 µg/mL; MIC P. aeruginosa ESBL 1 (P. aeruginosa ESBL 1; larger panel): 16 µg/mL; MIC E. faecalis (E. faecalis): 4 µg/mL; MIC C. freundii (C. freundii): <0.03 µg/mL; MIC E. cloacae (E. cloacae): >64 µg/mL; MIC P. vulgaris (P. vulgaris): <0.03 µg/mL"
"CC(C)Oc1c(NC(=O)c2ccc(NC(=O)[C@H](CC(N)=O)NC(=O)c3ccc(NC(=O)c4ccc([N+](=O)[O-])cc4)cc3)cc2)ccc(C(=O)Nc2ccc(C(=O)O)cc2)c1O [Compound 28, (S)-4-(4-(4-(4-amino-2-(4-(4-nitrobenzamido)benzamido)-4-oxobutanamido)benzamido)-2-hydroxy-3-isopropoxybenzamido)benzoic acid]",1 µg/mL,0.06 µg/mL,0.25 µg/mL,0.11 µM,0.06 µg/mL,0.25 µg/mL,0.25 µg/mL,> 64 µg/mL,0.5 µg/mL,1 µg/mL,0.13 µg/mL,> 64 µg/mL,> 64 µg/mL,0.13 µg/mL,0.5 µg/mL,0.06 µg/mL,> 64 µg/mL,0.25 µg/mL,2 µg/mL,> 64 µg/mL,MIC (E. aerogenes DSM-30053): > 64 µg/mL; MIC (P. mirabilis DSM-2140): > 64 µg/mL; MIC E. coli WT-III [marRΔ74bp] [2]: 0.06 µg/mL
"C/C(=C\c1ccc(O)cc1)C(=O)Nc1ccc(C(=O)N[C@@H](CC(N)=O)C(=O)Nc2ccc(C(=O)Nc3ccc(C(=O)Nc4ccc(C(=O)O)cc4)c(O)c3OC(C)C)cc2)cc1 [Compound 53, (S,E)-4-(4-(4-(4-amino-2-(4-(3-(4-hydroxyphenyl)-2-methylacrylamido)benzamido)-4-oxobutanamido)benzamido)-2-hydroxy-3-isopropoxybenzamido)benzoic acid]",0.25 µg/mL,0.06 µg/mL,0.06 µg/mL,–,0.13 µg/mL,0.25 µg/mL,> 64 µg/mL,2 µg/mL,0.25 µg/mL,0.25 µg/mL,0.25 µg/mL,1 µg/mL,> 64 µg/mL,0.13 µg/mL,0.5 µg/mL,0.13 µg/mL,64 µg/mL,2 µg/mL,0.5 µg/mL,> 64 µg/mL,MIC (E. aerogenes DSM-30053): 1 µg/mL; MIC (P. mirabilis DSM-2140): 2 µg/mL; MIC E. coli WT-III [marRΔ74bp] [2]: 0.06 µg/mL
"CO[C@@H](C(N)=O)[C@H](NC(=O)c1ccc(NC(=O)c2ccc(C#N)cc2)cc1)C(=O)Nc1ccc(C(=O)Nc2ccc(C(=O)Nc3ccc(C(=O)O)cc3)c(O)c2OC(C)C)cc1 [Compound 109, 4-(4-(4-((2S,3R)-4-amino-2-(4-(4-cyanobenzamido)benzamido)-3-methoxy-4-oxobutanamido)benzamido)-2-hydroxy-3-isopropoxybenzamido)benzoic acid]",< 0.03 µg/mL,< 0.03 µg/mL,0.25 µg/mL,0.4 µM,–,–,–,–,< 0.03 µg/mL,–,< 0.03 µg/mL,0.5 µg/mL,–,–,–,–,–,–,–,–,"MIC (E. coli WT; larger panel, Table 2b): 2 µg/mL; MIC (P. mirabilis; Proteus mirabilis): 4 µg/mL; MIC (K. pneumoniae; Klebsiella pneumoniae): 8 µg/mL; MIC (P. aeruginosa ESBL 2; Pseudomonas aeruginosa, ESBL2, larger panel): 1 µg/mL; MIC (A. baumannii; Acinetobacter baumannii): 1 µg/mL; MIC (S. marcescens; Serratia marcescens): > 64 µg/mL; MIC (E. aerogenes; Klebsiella aerogenes): 2 µg/mL; MIC (S. epidermidis; Staphylococcus epidermidis): < 0.03 µg/mL; MIC (P. aeruginosa ESBL 1; Pseudomonas aeruginosa, ESBL1, larger panel): 2 µg/mL; MIC (E. faecalis; Enterococcus faecalis): 0.125 µg/mL; MIC (C. freundii; Citrobacter freundii): < 0.03 µg/mL; MIC (E. cloacae; Enterobacter cloacae): > 64 µg/mL; MIC (P. vulgaris; Proteus vulgaris): 0.125 µg/mL"
